Laboratory results from patent US6521736B2, “Amphiphilic polymeric materials” (priority 2000, dated 2003).
Values belong to the compound of their own block, whether it stands above or below them.

Key:
[1] = Encapsulation of small molecules in PEG-1500-DMOI micelles, determined by UV spectroscopy; format: physicochemical; settings: for loading of complexed drug: complexed with PEG-1500-DMOI from 4:1 chloroform/methanol, taken up in water, UV
Method: Benzo[a]Pyrene (BP), a dye and potent carcinogen, was chosen as a hydrophobic model because BP encapsulation within aqueous micelles of the PEG-1500-DMOI polymer can be monitored by UV absorption spectroscopy. The amount of dye encapsulated in the micelles was readily determined by UV spectroscopy since an absorbance signal due to benzo[a]pyrene appeared in the 340-450 nm region only when the dye was solubilized within the aqueous micelle. Different concentrations of dye were prepared in dichloromethane and each was added to a constant amount of polymeric micelle solution (1 ml of 100 mg/ml). Polymer-dye complex films were cast on glass and dried under vacuum at room temperature overnight. The films were then removed and redissolved in water by sonication at 35° C. for 10 minutes, and purified by filtration from excess dye. A homogenous, stable solution of the dye was formed at concentrations of more than 0.25 wt %, indicating partitioning of the dye into the micellar core. The maximum loading capacity of the dye was 0.88% (w/w). […] A partition coefficient of 5×10^4 was determined, indicating strong partitioning.
In other experiments using this encapsulation method, PEG-1500-DMOI was complexed with either camptothecin or etoposide by combining the polymer and drug in a 4:1 chloroform/methanol mixture, then evaporating the resulting mixture overnight at room temperature under vacuum. The residue was treated with 5 ml water and filtered to remove any uncomplexed camptothecin. The solution was then examined with UV spectroscopy to determine the amount of complexed drug.

HIV-1 Rev = settings: CD4+HeLa cells, non-encapsulated drug; cited from earlier work
CD4+HeLa cells = settings: non-encapsulated drug; cited from earlier work
HIVLAI = settings: unencapsulated drug; cited from earlier work
mammalian cell cultures = assay: Cell growth, morphology and viability (XTT dye) in mammalian cell cultures; format: cell-based; settings: 1 mM extracellular unencapsulated drug
Method: […] At higher concentrations (e.g., 30 μM), loss of cell viability was seen. Host cell translation was monitored by the expression of inducible β-galactosidase activity; cell viability was monitored spectrophotometrically using XTT dye.

[2] = in aqueous PEG-1500-DMOI micelles

Compound: CC[C@@]1(O)C(=O)OCc2c1cc1n(c2=O)Cc2cc3ccccc3nc2-1 [camptothecin]
- loading of complexed drug [1]: 1.25 % (w/w)

Compound: kazugamycin [non-encapsulated kazugamycin]
- concentration that blocks HIV-1 Rev function (HIV-1 Rev): 25 µM
- concentration at which decreased cell proliferation and necrosis occur (CD4+HeLa cells): 35 µM

Compound: c1ccc2c(c1)cc1ccc3cccc4ccc2c1c34 [Benzo[a]Pyrene]
- partition coefficient [1]: 5×10^4
- dye concentration at which a homogenous, stable solution was formed [1, 2]: more than 0.25 wt %
- maximum loading capacity of the dye [1, 2]: 0.88 % (w/w)

Compound: NC[C@@H]1O[C@H](O[C@H]2[C@@H](O)[C@H](O[C@@H]3[C@@H](O)[C@H](N)C[C@H](N)[C@H]3O[C@H]3O[C@H](CN)[C@@H](O)[C@H](O)[C@H]3N)O[C@@H]2CO)[C@H](N)[C@@H](O)[C@@H]1O [unencapsulated neomycin B, neomycin B]
- concentration that inhibits HIV production, previously reported (HIVLAI): 2,500-5,000 μM

- loading of complexed drug [1]: 3.1 % (w/w)
Compound: COc1cc([C@@H]2c3cc4c(cc3[C@@H](O[C@@H]3O[C@@H]5CO[C@@H](C)O[C@H]5[C@H](O)[C@H]3O)[C@H]3COC(=O)[C@H]23)OCO4)cc(OC)c1O [etoposide]

Compound: C=C(NC(=O)C(=C)NC(=O)c1csc(C2=N[C@@H]3c4csc(n4)[C@H]4NC(=O)c5csc(n5)[C@H]([C@](C)(O)[C@@H](C)O)NC(=O)[C@H]5CSC(=N5)/C(=C/C)NC(=O)[C@H]([C@@H](C)O)NC(=O)c5csc(n5)[C@]3(CC2)NC(=O)[C@H](C)NC(=O)C(=C)NC(=O)[C@H](C)NC(=O)[C@H]([C@@H](C)CC)N[C@@H]2C=Cc3c([C@H](C)O)cc(nc3[C@H]2O)C(=O)O[C@@H]4C)n1)C(N)=O [unencapsulated thiostrepton, thiostrepton]
- effect on cell growth or cell morphology (mammalian cell cultures): no detectable effect
